# Assays:
# NCKX5 = test: Western blot of NCKX5 protein after siRNA knockdown in human melanocytes; assay type: cell-based; conditions: 5 days after siRNA mediated knockdown; anti C-terminus pAb; FIG. 28
# Method: FIG. 28—Western blot analysis of NCK5 after knockdown. Using Western blotting we have investigated NCKX5 protein expression 5 days after siRNA mediated knockdown (all 5 siRNA duplexes and controls were tested). Western blot was also used to evaluate the expression and processing (maturation) of tyrosinase (tyr) in the same samples. SDS-PAGE (10% PA for NCKX5, 4-12% for tyr, 5 μg protein/lane). A) Western blot for NCKX5: Detection via rabbit anti-NCKX5 pAb (anti C-terminus peptide). B) Western blot for tyr, via goat pAb (Santa Cruz). 1=No treatment, 2=scrambled siRNA control, 3-7=siRNA's 185, 260, 301, 492, 1110. […] These bands are absent in the samples where SLC24A5-specific duplexes were used (lanes 3-7). It is possible that the doublet represents the presence of alternate SLC24A5 splice variants.
# Cultured Cells (trypsinised off of 6-well culture plates) were lysed on ice for 20 minutes in 1.5 ml eppendorfs using 100 μl per sample of 1% triton X-100 in dPBS containing protease inhibitor cocktail (Sigma-Aldrich, Poole, UK). Cell extracts were centrifuged (10 minutes at 13000 g) to separate melanin and cell debris from the solubilised protein. The protein concentration of each supernatant fraction was determined by BCA assay as described in A).
# 20 μg protein (as determined by BCA assay) was reconstituted into 20 μl of 1×LDS loading buffer (Invitrogen Ltd, Paisley, UK) containing 1× reducing agent (Invitrogen Ltd, Paisley, UK), heated to 40° C. for 30 minutes and loaded onto 10% Novex bis-tris acrylamide gels with 1×MOPS running buffer (Invitrogen Ltd, Paisley, UK). Kaleidoscope molecular weight markers (Bio-Rad Laboratories Ltd, Hemel Hempstead, UK) were run alongside samples for size determinations. Protein was transferred onto PVDF membrane by electrophoresis transfer, using a Bio-Rad mini-cell II trans-blotter and 1×Tris-Glycine transfer buffer (Invitrogen Ltd, Paisley, UK)+15% v/v methanol (100V for 1 hour).
# Membranes containing transferred protein were “blocked” using 2% w/v skimmed milk protein (SMP) in PBS+0.05% tween20 (PBST) for 1 hour with gentle agitation. Peptide affinity purified rabbit polyclonal antibody (raised using a peptide equivalent to the C-terminus of NCKX5—GNNKIRGCGG) was diluted to 0.5 μg/ml using 2% SMP in PBST. The diluted antibody was incubated with the membrane for 2 hours at room temperature. The membrane was then rinsed with PBST (4×5 minutes washes). Peroxidase conjugated anti-rabbit IgG (Jackson ImmunoResearch Laboratories Inc. PA, USA) was diluted 1/4000 using 2% SMP in PBST and was incubated with the membranes for 1 hour. Finally, membranes were washed using 6×5 minute rinses with PBST. […]
# [1] = tested on: lightly pigmented human melanocytes; test: Quantitative assessment of melanogenesis (melanin content) after siRNA knockdown; assay type: cell-based; conditions: replicated x3, FIG. 27
# Method: FIG. 27—Quantitative assessment of melanogenesis. A decrease in post-treatment melanin content is noted for duplex (492) in lightly pigmented human melanocytes (replicated ×3).
# To each pellet of melanin+cell debris obtained in section 2), 0.5 ml of diethyl ether:ethanol (1:1 ratio) was added. Eppendorfs were vortexed vigorously for 30 seconds and centrifuged at 13000 g for 5 minutes. The ether layer was carefully removed to waste and a further 0.5 ml was added. The tubes were agitated and centrifuged as before. The liquid phase was again removed and the melanin pellets were allowed to air dry at room temperature for 10 minutes. Melanin pellets were solubilised by the addition of 200 μl of 1M NaOH+10% DMSO and incubation (with occasional agitation) at 50° C. for 1 hour. 80 μl aliquots of each sample were transferred to a 96-well microtitre plate in duplicate. OD^450 of each sample was determined and the melanin content of each fraction was calculated from a synthetic melanin standard curve, prepared as described above. In treatment comparisons, results were expressed as μg melanin per μg protein.
# Primary human melanocytes isolated from lightly pigmented or darkly pigmented neonatal foreskin were obtained from Cascade Biologics. Melanocyte Growth Medium (MGM) refers to Medium 254 (Cascade Biologics) supplemented with HMGS (Cascade Biologics). […]
Substance,NCKX5 Western blot bands of approx. 42 and 44 kDa (NCKX5),post-treatment melanin content [1]
185 (sense AGGGCCACAGGAAATAGCACCCAAT; antisense TCCCGGTGTCCTTTATCGTGGGTTA; chemistry not given here; one strand is listed 3' to 5') [compound 185],absent,
260 (sense GAGCGCAGAGATGGAGGCATCATAA; antisense CTCGCGTCTCTACCTCCGTAGTATT; chemistry not given here; one strand is listed 3' to 5') [compound 260],absent,
301 (sense CGTTTACATGTTCATGGCCATATCT; antisense GCAAATGTACAAGTACCGGTATAGA; chemistry not given here; one strand is listed 3' to 5') [compound 301],absent,
492 (sense GCACCATCCTTGGATCTGCAATTTA; antisense CGTGGTAGGAACCTAGACGTTAAAT; chemistry not given here; one strand is listed 3' to 5') [compound 492],absent,decrease

# From patent US20100249373A1, “SCREENING METHODS” (priority 2007, published 2010)
